Results reported in ChEMBL document CHEMBL1201862, “PubChem BioAssay data set” (2004).
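96-well plates; 48 h exposure; 5 concentrations. Endpoints by linear interpolation between flanking doses. Not reached: highest tested concentration assigned. Abbreviation: GI50, concentration required for 50% inhibition of growth.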 Calls of active or inactive are those of the source. No stated cut-off is given here; in the data, active = GI50 up to about 1.1 µM and inactive = higher.

Legend:
Assay in all cases: inhibition of tumour cell growth, NCI panel, 48 h
786-0 = tested on: 786-0
A549 = tested on: A549
ACHN = tested on: ACHN
CAKI-1 = tested on: CAKI-1
CCRF-CEM = tested on: CCRF-CEM
COLO 205 = tested on: COLO 205
DLD-1 = tested on: DLD-1
DMS-114 = tested on: DMS-114
DMS-273 = tested on: DMS-273
EKVX = tested on: EKVX
HCC 2998 = tested on: HCC 2998
HCT-116 = tested on: HCT-116
HL-60 = tested on: HL-60
HOP-18 = tested on: HOP-18
HOP-62 = tested on: HOP-62
HOP-92 = tested on: HOP-92
HT-29 = tested on: HT-29
IGROV-1 = tested on: IGROV-1
K562 = tested on: K562
KM-20L2 = tested on: KM-20L2
KM12 = tested on: KM12
LOX IMVI = tested on: LOX IMVI
LXFL 529 = tested on: LXFL 529
M14 = tested on: M14
M19-MEL = tested on: M19-MEL
MOLT-4 = tested on: MOLT-4
Malme-3M = tested on: Malme-3M
NCI-H226 = tested on: NCI-H226
NCI-H23 = tested on: NCI-H23
NCI-H460 = tested on: NCI-H460
OVCAR-3 = tested on: OVCAR-3
OVCAR-4 = tested on: OVCAR-4
OVCAR-5 = tested on: OVCAR-5
OVCAR-8 = tested on: OVCAR-8
RXF 393 = tested on: RXF 393
RXF 631 = tested on: RXF 631
SF-268 = tested on: SF-268
SF-295 = tested on: SF-295
SF-539 = tested on: SF-539
SK-MEL-28 = tested on: SK-MEL-28
SK-MEL-5 = tested on: SK-MEL-5
SK-OV-3 = tested on: SK-OV-3
SN12C = tested on: SN12C
SNB-19 = tested on: SNB-19
SNB-78 = tested on: SNB-78
SR = tested on: SR
SW-620 = tested on: SW-620
U-251 = tested on: U-251
UACC-257 = tested on: UACC-257
UACC-62 = tested on: UACC-62
UO-31 = tested on: UO-31
A498 = tested on: A498
HCT-15 = tested on: HCT-15
RPMI-8226 = tested on: RPMI-8226
SK-MEL-2 = tested on: SK-MEL-2
SNB-75 = tested on: SNB-75
TK-10 = tested on: TK-10
XF498 = tested on: XF498
NCI-H522 = tested on: NCI-H522

With `Cc1c(C(=O)Nc2ccc(Cl)cc2)nc(N)nc1-c1cccc(Cl)c1` the GI50 (786-0) was > 100 µM (inactive), the GI50 (A549) was 74.5 µM (inactive) and the GI50 (ACHN) was > 100 µM (inactive). For the same molecule, the GI50 (CAKI-1) was 68.7 µM (inactive), the GI50 (CCRF-CEM) was > 100 µM (inactive) and the GI50 (COLO 205) was 77.3 µM (inactive). The GI50 (DLD-1) was > 100 µM (inactive), the GI50 (DMS-114) was 94.4 µM (inactive) and the GI50 (DMS-273) was > 100 µM (inactive). The GI50 (EKVX) was > 100 µM (inactive), the GI50 (HCC 2998) was 61.9 µM (inactive) and the GI50 (HCT-116) was 57.3 µM (inactive). The GI50 (HL-60) was 39.2 µM (inactive), the GI50 (HOP-18) was > 100 µM (inactive) and the GI50 (HOP-62) was > 100 µM (inactive). The GI50 (HOP-92) was 28.4 µM (inactive), the GI50 (HT-29) was 36.7 µM (inactive) and the GI50 (IGROV-1) was > 100 µM (inactive). For the same molecule, the GI50 (K562) was 38.5 µM (inactive), the GI50 (KM-20L2) was 45.4 µM (inactive) and the GI50 (KM12) was 46.6 µM (inactive). The GI50 (LOX IMVI) was > 10 µM (inactive), the GI50 (LXFL 529) was > 10 µM (inactive) and the GI50 (M14) was 55.7 µM (inactive). For the same molecule, the GI50 (M19-MEL) was > 100 µM (inactive), the GI50 (MOLT-4) was > 100 µM (inactive) and the GI50 (Malme-3M) was > 100 µM (inactive). For the same molecule, the GI50 (NCI-H226) was > 100 µM (inactive), the GI50 (NCI-H23) was > 100 µM (inactive) and the GI50 (NCI-H460) was 66.2 µM (inactive). For the same molecule, the GI50 (OVCAR-3) was > 100 µM (inactive), the GI50 (OVCAR-4) was > 100 µM (inactive) and the GI50 (OVCAR-5) was > 100 µM (inactive). The GI50 (OVCAR-8) was > 100 µM (inactive), the GI50 (RXF 393) was 39.5 µM (inactive) and the GI50 (RXF 631) was 52.1 µM (inactive). The GI50 (SF-268) was > 100 µM (inactive), the GI50 (SF-295) was > 100 µM (inactive) and the GI50 (SF-539) was > 100 µM (inactive). For the same molecule, the GI50 (SK-MEL-28) was > 100 µM (inactive), the GI50 (SK-MEL-5) was > 100 µM (inactive) and the GI50 (SK-OV-3) was > 100 µM (inactive). The GI50 (SN12C) was > 100 µM (inactive), the GI50 (SNB-19) was > 100 µM (inactive) and the GI50 (SNB-78) was > 100 µM (inactive). For the same molecule, the GI50 (SR) was > 100 µM (inactive), the GI50 (SW-620) was 62.7 µM (inactive) and the GI50 (U-251) was > 100 µM (inactive). The GI50 (UACC-257) was > 100 µM (inactive), the GI50 (UACC-62) was > 100 µM (inactive) and the GI50 (UO-31) was > 100 µM (inactive).

`CC1CCP(=O)(c2ccccc2)CC1` (configuration not stated) was tested, and the GI50 (786-0) was > 100 µM (inactive), the GI50 (A498) was > 10 µM (inactive) and the GI50 (A549) was > 100 µM (inactive). The GI50 (ACHN) was > 100 µM (inactive), the GI50 (CAKI-1) was > 100 µM (inactive) and the GI50 (CCRF-CEM) was > 100 µM (inactive). The GI50 (COLO 205) was > 100 µM (inactive), the GI50 (DLD-1) was > 100 µM (inactive) and the GI50 (DMS-114) was > 100 µM (inactive). For the same molecule, the GI50 (DMS-273) was > 100 µM (inactive), the GI50 (EKVX) was > 100 µM (inactive) and the GI50 (HCC 2998) was > 100 µM (inactive). For the same molecule, the GI50 (HCT-15) was > 100 µM, the GI50 (HL-60) was > 100 µM (inactive) and the GI50 (HOP-62) was > 100 µM (inactive). For the same molecule, the GI50 (HT-29) was > 100 µM (inactive), the GI50 (IGROV-1) was > 100 µM (inactive) and the GI50 (K562) was > 100 µM (inactive). For the same molecule, the GI50 (KM-20L2) was > 100 µM (inactive), the GI50 (KM12) was > 100 µM (inactive) and the GI50 (LOX IMVI) was > 100 µM (inactive). For the same molecule, the GI50 (LXFL 529) was > 100 µM (inactive), the GI50 (M14) was > 100 µM (inactive) and the GI50 (M19-MEL) was > 100 µM (inactive). For the same molecule, the GI50 (MOLT-4) was > 100 µM (inactive), the GI50 (Malme-3M) was > 100 µM (inactive) and the GI50 (NCI-H23) was > 100 µM (inactive). The GI50 (NCI-H460) was > 100 µM (inactive), the GI50 (OVCAR-3) was > 100 µM (inactive) and the GI50 (OVCAR-4) was > 100 µM (inactive). The GI50 (OVCAR-5) was > 100 µM (inactive), the GI50 (OVCAR-8) was > 100 µM (inactive) and the GI50 (RPMI-8226) was > 100 µM (inactive). The GI50 (RXF 393) was > 100 µM (inactive), the GI50 (RXF 631) was > 100 µM (inactive) and the GI50 (SF-268) was > 100 µM (inactive). For the same molecule, the GI50 (SF-295) was > 100 µM (inactive), the GI50 (SF-539) was > 100 µM (inactive) and the GI50 (SK-MEL-28) was > 100 µM (inactive). The GI50 (SK-MEL-2) was > 100 µM (inactive), the GI50 (SK-MEL-5) was > 100 µM (inactive) and the GI50 (SK-OV-3) was > 100 µM (inactive). The GI50 (SN12C) was > 100 µM (inactive), the GI50 (SNB-19) was > 100 µM (inactive) and the GI50 (SNB-75) was > 100 µM (inactive). For the same molecule, the GI50 (SNB-78) was > 100 µM (inactive), the GI50 (SW-620) was > 100 µM (inactive) and the GI50 (TK-10) was > 100 µM (inactive). The GI50 (U-251) was > 100 µM (inactive), the GI50 (UACC-257) was > 100 µM (inactive) and the GI50 (UACC-62) was > 100 µM (inactive). For the same molecule, the GI50 (UO-31) was > 100 µM (inactive) and the GI50 (XF498) was > 100 µM (inactive).

`O=c1oc2ccccc2n1P(=O)(n1c(=O)oc2ccccc21)n1c(=O)oc2ccccc21` was tested, and the GI50 (A498) was > 100 µM (inactive), the GI50 (A549) was > 100 µM (inactive) and the GI50 (ACHN) was > 100 µM (inactive). For the same molecule, the GI50 (CAKI-1) was > 100 µM (inactive), the GI50 (CCRF-CEM) was > 100 µM (inactive) and the GI50 (COLO 205) was > 100 µM (inactive). For the same molecule, the GI50 (DLD-1) was > 100 µM (inactive), the GI50 (DMS-114) was > 100 µM (inactive) and the GI50 (DMS-273) was > 100 µM (inactive). The GI50 (EKVX) was 97.7 µM (inactive), the GI50 (HCC 2998) was > 100 µM (inactive) and the GI50 (HCT-116) was > 100 µM (inactive). For the same molecule, the GI50 (HL-60) was > 100 µM (inactive), the GI50 (HOP-62) was > 100 µM (inactive) and the GI50 (HOP-92) was > 100 µM (inactive). For the same molecule, the GI50 (HT-29) was > 100 µM (inactive), the GI50 (IGROV-1) was > 100 µM (inactive) and the GI50 (K562) was > 100 µM (inactive). For the same molecule, the GI50 (KM-20L2) was > 100 µM (inactive), the GI50 (KM12) was > 100 µM (inactive) and the GI50 (LOX IMVI) was > 100 µM (inactive). The GI50 (LXFL 529) was > 100 µM (inactive), the GI50 (M14) was > 100 µM (inactive) and the GI50 (M19-MEL) was 60.3 µM (inactive). For the same molecule, the GI50 (MOLT-4) was > 100 µM (inactive), the GI50 (Malme-3M) was > 100 µM (inactive) and the GI50 (NCI-H226) was > 100 µM (inactive). For the same molecule, the GI50 (NCI-H23) was > 100 µM (inactive), the GI50 (NCI-H460) was > 100 µM (inactive) and the GI50 (NCI-H522) was > 100 µM (inactive). For the same molecule, the GI50 (OVCAR-3) was > 100 µM (inactive), the GI50 (OVCAR-4) was > 100 µM (inactive) and the GI50 (OVCAR-5) was > 100 µM (inactive). For the same molecule, the GI50 (RXF 393) was > 100 µM (inactive), the GI50 (RXF 631) was > 100 µM (inactive) and the GI50 (SF-268) was > 100 µM (inactive). For the same molecule, the GI50 (SF-295) was > 100 µM (inactive), the GI50 (SF-539) was > 100 µM (inactive) and the GI50 (SK-MEL-28) was > 100 µM (inactive). For the same molecule, the GI50 (SK-MEL-2) was > 100 µM (inactive), the GI50 (SK-OV-3) was > 100 µM (inactive) and the GI50 (SN12C) was > 100 µM (inactive). The GI50 (SNB-19) was > 100 µM (inactive), the GI50 (SNB-75) was 90.2 µM (inactive) and the GI50 (SNB-78) was > 100 µM (inactive). For the same molecule, the GI50 (SR) was > 100 µM (inactive), the GI50 (SW-620) was > 100 µM (inactive) and the GI50 (TK-10) was > 100 µM (inactive). For the same molecule, the GI50 (U-251) was > 100 µM (inactive), the GI50 (UACC-257) was > 100 µM (inactive) and the GI50 (UACC-62) was > 100 µM (inactive). The GI50 (UO-31) was > 100 µM (inactive) and the GI50 (XF498) was > 100 µM (inactive).
